This is an account of results in patent publication US20250255856A1, “THERAPEUTIC COMPOSITIONS WITH IMINO SUGARS FOR THE TREATMENT OF DISEASES WITH ACCUMULATION OF HEPARAN SULFATE” (priority 2022, published 2025).

One test concerns patients with MPS III. To be noted: cited from earlier work.
The test system of test [1] is NAGLU-silenced clone (cl5) of human neuroblastoma cell line SK-NBE. In words: Immunofluorescence against beta-amyloid peptide 1-42 in NAGLU-silenced SK-NBE clone. The test is classed as cell-based. The following applies: 20 μM, 48 hours. The method, then: The clone (c15) stably silenced for NAGLU, the causative gene of MPS IIIB, is able to mimic the features of neurodegenerative diseases as it accumulates beta-amyloid fibers in the cytoplasm. In fact, Sanfilippo Syndrome is also defined as “childhood Alzheimer”.
The diseased clone (c15) was grown in the presence of L-DNJ, L-NBDNJ, L-AMPDNM and L-MONDNJ and the corresponding enantiomers D-DNJ, D-NBDNJ, D-AMPDNM and D-MONDNJ at a dosage of 20 μM and after 48 hours were processed by immunofluorescence against the beta-amyloid peptide 1-42. […] On contrary, treatment with the corresponding D-enantiomers has no effect on the reduction of the accumulation of amyloid fibers compared to the untreated clone (mock) (Table 7).

For test [2], the system named is human adult dermal fibroblasts HDFa. Description: HS and Lamp1 immunofluorescence in control fibroblasts HDFa. Type of test: cell-based. The following applies: 20 μM, 48 hours. The method, then:
(§1) To verify whether the selected iminosugars could exert the same effects also on the fibroblasts of patients affected by Sanfilippo disease, human adult dermal fibroblasts HDFa (purchased from Sigma-Aldrich) were used as control, and fibroblasts of patients affected by Sanfilippo A and B (MPS IIIA and IIIB) were used as disease model.
(§2) Cells were cultured in the presence of the selected L-iminosugars at a dosage of 20 μM and after 48 hours were treated for HS and Lamp1 immunofluorescence. Treatment with L-iminosugars had no effect on control HDFa (Table 3).
(§3) Cells were grown in the presence of the iminosugars D-DNJ, D-NBDNJ, D-AMPDNM and D-MONDNJ at the dosage of 20 μM and after 48 hours were treated for HS and Lamp1 immunofluorescence. Treatment with D-iminosugars had no effect on HDFa and fibroblasts of patients affected by Sanfilippo A and B (MPS IIIA and MPS IIIB) both on HS and lysosome accumulation (Table 4).

The subject of test [3] is fibroblasts of patients affected by Sanfilippo B (MPS IIIB). Description: HS and Lamp1 immunofluorescence in Sanfilippo B patient fibroblasts. The test is classed as cell-based, human. The following applies: 20 μM, 48 hours.
Description: as §1
(§4) The human cell lines, fibroblasts, from patients with MPS (Sanfilippo disease) used in the examples were obtained from the G. Gaslini Institute of Genoa, “Cell Line and DNA Biobank from Patients Affected by Genetic Diseases”-Telethon Genetic Biobank Network—Telethon research service. These cells are classified with identification codes and by type of disease without allowing patient identification. Cells were collected from the patients, at the Gaslini Institute, with informed consent to the collection extended to conservation and its possible use, for diagnosis and/or research purposes according to current legislation as required by the guidelines followed by the Telethon biobanks. The Network operates abiding by the Italian Privacy and Data Protection Laws in force, including: Italian Data Protection Authority, Personal Data Protection Code, Legislative Decree no. 196, 30 Jun. 2003, published in Official Gazette No. 174 of the Italian Republic, 29 Jul. 2003; Italian Data Protection Authority, General Authorization for the processing of genetic data, 24 Jun. 2011, published in Official Gazette No. 159 of Italian Republic, 11 Jul. 2011.
as §2, §3

In test [4] the test system is fibroblasts of patients affected by Sanfilippo A (MPS IIIA). Description: HS and Lamp1 immunofluorescence in Sanfilippo A patient fibroblasts. Type of test: cell-based, human. The following applies: 20 μM, 48 hours.
Description: as §1, §4, §2, §3

The test system of test [5] is HeLa tumor epithelial cells. In words: HeLa cell proliferation assay. Type of test: cell-based. The following applies: after 48 hours. Here is the method: Furthermore, treatment with the L-deoxyminosugars L-DNJ, L-NBDNJ, L-AMPDNM and L-MONDNJ caused a decrease of the number of HeLa cells after 48 hours as shown by the cell proliferation assay reported in Table 6.

For test [6], the system named is NAGLU-silenced clone (cl5) of human neuroblastoma cell line SK-NBE. Description: Lamp1 immunofluorescence (lysosomal accumulation) in NAGLU-silenced SK-NBE clone, Sanfilippo B model. The test is classed as cell-based. The following applies: 48 hours. An excerpt:
(§5) To study the effects of the compounds on the lysosomal dysfunctions in a neuronal model of Sanfilippo B disease (MPS IIIB), we recently generated stable clones of the human neuroblastoma cell line SK-NBE silenced for the NAGLU gene causative of MPS IIIB [De Pasquale V, et al. (2021). Biochim Biophys Acta Mol Cell Res. 1868, 119113.]. Mimicking the features of Sanfilippo B disease, silencing of NAGLU causes accumulation of heparan sulfate and accumulation of lysosomes in the cytoplasm of stable SK-NBE clones compared to the control (WT) clone.
(§6) Therefore, NAGLU-silenced clone (c15) and control clone (WT) were selected to test the effect of L-deoxyminosugars (L-DNJ, L-NBDNJ, L-NNDNJ, L-HPDNJ, L-NPDNJ, L-AMPDNM and L-MONDNJ) in the hydrochloride form on the lysosomal phenotype of our cell model of Sanfilippo B (MPS IIIB).
(§7) Clone 5 was cultured in the presence of 20 μM of each L-deoxyminosugar under normal growth conditions and after 48 hours the lysosomal accumulation was evaluated with immunofluorescence technique by using a specific antibody against Lamp1 (lysosomal marker). […] Furthermore, upon treatment with the active L-deoxyminosugar the lysosomes are no longer concentrated in the perinuclear region of the cells, as occurs in several lysosomal diseases, but they are physiologically distributed throughout the cytoplasm.

The test system is the same in test [7]. Description: Heparan sulfate (HS) immunofluorescence in NAGLU-silenced SK-NBE clone, Sanfilippo B model. The test is classed as cell-based. To be noted: 48 hours.
Description: as §5
Clone 5 was grown in the presence of 20 μM of each L-iminosugar under normal growth conditions and after 48 hours the accumulation of heparan sulfate (HS) was evaluated by immunofluorescence staining for HS.

Test [8] has as its system control clone (WT) of human neuroblastoma cell line SK-NBE. In words: Lamp1 immunofluorescence in control (WT) SK-NBE clone. To be noted: 20 μM, 48 hours. Type of test: cell-based.
Description: as §5, §6, §7

Test [9] shares this test system. Description: Heparan sulfate (HS) immunofluorescence in control (WT) SK-NBE clone. To be noted: 20 μM, 48 hours. Type of test: cell-based.
Test [10] has as its system HeLa tumor epithelial cells. Description: HS immunostaining in HeLa cells. The test is classed as cell-based. The following applies: 48 hours. Here is the method:
To test whether treatment with the selected L-deoxyminosugars (L-DNJ, L-NBDNJ, L-AMPDNM and L-MONDNJ) could interfere with HS synthesis we selected a cell line not mutated for NAGLU and highly decorated by heparan sulfate on the cell membrane. For this purpose, HeLa tumor epithelial cells (purchased from ATCC) were cultured for 48 hours in the presence of the selected L-iminosugars and the amount of HS was evaluated by immunostaining.

Where a name gives a salt, the structure may show the parent alone.

In the case of `CCCCN1C[C@H](O)[C@@H](O)[C@H](O)[C@H]1CO` [D-NBDNJ•HCl], in the test with patients with MPS III, the “Clinical efficacy in MPS III patients, in words” value was “no beneficial effects”. Besides, the “Relative amyloid fluorescence intensity” value in [1] turned out to be 0.98. The “Cells positive for HS (%)” value in test [2] turned out to be 4.8%; in test [3] (MPS-IIIB fibroblasts), 95.2%; in test [4] (MPS-IIIA fibroblasts), 99.7%. For the same compound, the “Cells positive for Lamp1 (%)” value is reported as 5.0% in [2], 93.8% in test [3] (MPS-IIIB fibroblasts) and 94.7% in [4] (MPS-IIIA fibroblasts). In addition, in test [5], the Cell number was 4.2 · 10^5.

Take `COCCCCCCCCCN1C[C@@H](O)[C@H](O)[C@@H](O)[C@@H]1CO` [L-MONDNJ•HCl, N-methoxynonyl L-DNJ]: the “Cells positive for Lamp1 (%)” value in [6] (cl5 clone, 20 μM) is given as 21%; in [8], 2.4%. Further, the “Relative Lamp1 fluorescence intensity” value is recorded as 1.00 in [6] (cl5 clone, 20 μM) and 1.05 in [8]. Besides, in test [6] (clone 5, 20 μM), the “Effect on lysosomal enlargement and accumulation (lysosomal phenotype), in words” value is listed as “dramatic reduction”. The “Cells positive for HS (%)” value in test [7] (cl5 clone, 20 μM) is 4.9%; in test [9], 2.1%. The “Relative HS fluorescence intensity” value in test [7] (cl5 clone, 20 μM) worked out at 1.15; in [9], 0.97; in test [10], 0.11. Further, the “Effect on HS staining / HS accumulation, in words” value in test [7] (clone 5, 20 μM) was “dramatic reduction”. Besides, the “Relative amyloid fluorescence intensity” value in test [1] is given as 0.01. Also, the “Relative fluorescence intensity compared to HDFa, HS” value in test [2] was found to be 1.0; in test [3] (MPS-IIIB fibroblasts) it was 1.7; in test [4] (MPS-IIIA fibroblasts) it was 1.8. Moreover, the “Relative fluorescence intensity compared to HDFa, Lamp1” value in test [2] is 1.0; in test [3] (MPS-IIIB fibroblasts) it was 1.3; in test [4] (MPS-IIIA fibroblasts) it was 2.2. In addition, the “Effect on HS and lysosome (Lamp1) accumulation, in words” value in test [3] (Sanfilippo B (MPS IIIB) patient fibroblasts) and in [4] (Sanfilippo A (MPS IIIA) patient fibroblasts) was “strong reduction” in each case. Moreover, the “Effect on HS accumulation on the HeLa cell membrane, in words” value in [10] was “strong reduction”. The Cell number in [5] is 3.1 · 10^5. The “Effect on the number of HeLa cells, in words” value in test [5] is given as “decrease”.

For `O=c1c(-c2ccc(O)cc2)coc2cc(O)cc(O)c12` [genistein], in the test with patients with MPS III, the “Clinical efficacy in MPS III patients, in words” value is on record as “ineffective”.
